# Literature values as cited in patent US20240350389A1, “METHOD FOR DYEING KERATINOUS MATERIAL, IN PARTICULAR HUMAN HAIR” (HENKEL AG & CO. KGAA, priority 2021, published 2024).
# Details: 25° C.
SMILES,water solubility,solubility in water
CCN(Cc1cccc(S(=O)(=O)[O-])c1)c1ccc(C(=C2C=CC(=[N+](CC)Cc3cccc(S(=O)(=O)[O-])c3)C=C2)c2ccccc2S(=O)(=O)[O-])cc1.[Na+].[Na+] [Acid Blue 9],more than 20 wt %,–
"O=S(=O)([O-])c1ccc(N=Nc2c(O)ccc3ccccc23)cc1.[Na+] [Acid Orange 7, sodium salt of 4-[(2-hydroxy-1-naphthyl)azo]benzene sulfonate]",–,more than 7 g/L
"Nc1cc(S(=O)(=O)[O-])cc2cc(S(=O)(=O)[O-])c(N=Nc3ccccc3)c(O)c12.[Na+].[Na+] [Acid Red 33, disodium salt of 5-amino4-hydroxy-3-(phenylazo)-naphthalene2,7-disulfonate]",–,2.5 mg/mL
"O=[N+]([O-])c1cc([N+](=O)[O-])c2ccc(S(=O)(=O)O)cc2c1O.[Na].[Na] [Acid yellow 1, 8-hydroxy-5,7-dinitro-2-naphthalenesulfonic acid disodium]",–,at least 40 g/L
